# In US20090143279A1 (priority 2007, published 2009):
# Where two headings read alike, the source gives them in different places.
# How the values were obtained:
# [1] = test system: cellular dehydrogenase activity
# mtOXPHOS transcripts = format: cell-based, mouse
# [2] = test system: mitochondrial membrane potential; format: cell-based, mouse
# OXPHOS gene expression = format: cell-based, mouse
# cytochrome c = format: cell-based, mouse
# reactive oxygen species = format: cell-based, mouse
# nuOXPHOS transcripts = format: cell-based, mouse
# [3] = composite Z-score vs DMSO, Conc 20 μM
# [4] = composite Z-score vs mock-treated (DMSO) wells, Conc 20 μM
# [5] = Conc 20 μM, normalized score vs mock-treated (DMSO) wells
# [6] = 20 μM, composite Z-score vs DMSO
# [7] = composite Z-score vs DMSO wells, Conc 20 μM
# [8] = normalized composite Z-score vs mock-treated (DMSO) wells, Conc 20 μM
smiles,measurement,setting,value
O=c1cc(-c2ccc(O)cc2)oc2cc(O[C@@H]3O[C@H](CO)[C@@H](O)[C@H](O)[C@H]3O)cc(O)c12 [cosmosiin],MTT,[1]; [3],−0.801
same,mitoOX,mtOXPHOS transcripts; [3],−0.611
same,Viability,C2C12 myotubes; [3],0.141
same,ΔΨm,[2]; [3],0.053
same,GE-HTS,OXPHOS gene expression; [3],−0.433
same,cyt c,cytochrome c; [3],−0.009
same,ROS,reactive oxygen species; [3],−0.052
same,nucOX,nuOXPHOS transcripts; [3],−0.287
COc1c2c(cc3c1OCO3)CC[N+](C)=C2 [cotarnine],MTT,[1]; [4],−0.587
same,mitoOX,mtOXPHOS transcripts; [4],−0.151
same,Viability,C2C12 myotubes; [4],−0.398
same,ΔΨm,[2]; [4],−1.103
same,GE-HTS,OXPHOS gene expression; [4],0.049
same,cyt c,cytochrome c; [4],0.068
same,ROS,reactive oxygen species; [4],−0.007
same,nucOX,nuOXPHOS transcripts; [4],0.159
COc1ccccc1/C=C/C(=O)O [coumarinic acid methyl ether],MTT (composite Z-score),[1],−2.099
same,mitoOX (composite Z-score),mtOXPHOS transcripts,0.383
same,Viability (composite Z-score),C2C12 myotubes,−0.844
same,ΔΨm (composite Z-score),[2],−1.070
same,GE-HTS (composite Z-score),OXPHOS gene expression,0.143
same,cyt c (composite Z-score),cytochrome c,0.170
same,ROS (composite Z-score),reactive oxygen species,0.917
same,nucOX (composite Z-score),nuOXPHOS transcripts,0.031
C=C1C(=O)O[C@H]2C[C@@H]1C(OC(C)=O)C/C(C)=C/CC/C(C)=C/CC[C@@]2(C)O (stereo partly shown) [crassin acetate],MTT,[1]; [4],−1.220
same,mitoOX,mtOXPHOS transcripts; [4],−0.703
same,Viability,C2C12 myotubes; [4],−2.757
same,ΔΨm,[2]; [4],0.374
same,GE-HTS,OXPHOS gene expression; [4],−0.720
same,cyt c,cytochrome c; [4],−1.840
same,ROS,reactive oxygen species; [4],−1.394
same,nucOX,nuOXPHOS transcripts; [4],−0.685
CC(C)(O)CC[C@@H](O)[C@](C)(O)[C@H]1CC[C@@]2(O)C3=CC(=O)[C@@H]4C[C@@H](O)[C@@H](O)C[C@]4(C)[C@H]3CC[C@]12C [crustecdysone],MTT (composite Z-score),[1]; [5],−0.545
same,mitoOX (composite Z-score),mtOXPHOS transcripts; [5],0.062
same,Viability (composite Z-score),C2C12 myotubes; [5],−0.458
same,ΔΨm (composite Z-score),[2]; [5],−0.721
same,GE-HTS (composite Z-score),OXPHOS gene expression; [5],0.354
same,cyt c (composite Z-score),cytochrome c; [5],0.468
same,ROS (composite Z-score),reactive oxygen species; [5],0.657
same,nucOX (composite Z-score),nuOXPHOS transcripts; [5],0.487
NC1(C(=O)O)CCCC1 [cycloleucine],MTT,[1]; [6],−1.310
same,mitoOX,mtOXPHOS transcripts; [6],−1.397
same,Viability,C2C12 myotubes; [6],−1.300
same,ΔΨm,[2]; [6],−0.765
same,GE-HTS,OXPHOS gene expression; [6],−0.839
same,cyt c,cytochrome c; [6],0.822
same,ROS,reactive oxygen species; [6],0.024
same,nucOX,nuOXPHOS transcripts; [6],−0.495
CN(C)CCOC(=O)C(c1ccccc1)C1(O)CCCC1 (stereo not shown) [cyclopentolate],MTT,[1]; [7],−0.756
same,mitoOX,mtOXPHOS transcripts; [7],−0.037
same,Viability,C2C12 myotubes; [7],−0.300
same,ΔΨm,[2]; [7],−0.072
same,GE-HTS,OXPHOS gene expression; [7],0.556
same,cyt c,cytochrome c,0.859
same,cyt c,cytochrome c; [7],−0.283
same,ROS,reactive oxygen species; [7],−0.406
same,nucOX,nuOXPHOS transcripts; [7],0.830
CC(=O)C1=C(O)[C@@H]2[C@H]3c4c[nH]c5cccc(c45)C[C@H]3C(C)(C)N2C1=O [cyclopiazonic acid],MTT,[1]; [3],−1.107
same,mitoOX,mtOXPHOS transcripts; [3],0.172
same,Viability,C2C12 myotubes; [3],−1.392
same,ΔΨm,[2]; [3],0.863
same,GE-HTS,OXPHOS gene expression; [3],0.186
same,cyt c,cytochrome c; [3],0.033
same,ROS,reactive oxygen species; [3],−0.293
same,nucOX,nuOXPHOS transcripts; [3],0.163
CO[C@H]1C[C@H](O[C@H]2CC[C@]3(C=O)[C@H]4CC[C@]5(C)[C@@H](C6=CC(=O)OC6)CC[C@]5(O)[C@@H]4CC[C@]3(O)C2)O[C@H](C)[C@H]1O [cymarin],MTT (composite Z-score),[1]; [5],−1.849
same,mitoOX (composite Z-score),mtOXPHOS transcripts; [5],−0.464
same,Viability (composite Z-score),C2C12 myotubes; [5],−1.155
same,ΔΨm (composite Z-score),[2]; [5],−0.996
same,GE-HTS (composite Z-score),OXPHOS gene expression; [5],−0.473
same,cyt c (composite Z-score),cytochrome c; [5],0.356
same,ROS (composite Z-score),reactive oxygen species; [5],0.695
same,nucOX (composite Z-score),nuOXPHOS transcripts; [5],−0.412
CC(=O)[C@@]1(O)CC[C@H]2[C@@H]3C=C(Cl)C4=CC(=O)[C@@H]5C[C@@H]5[C@]4(C)[C@H]3CC[C@@]21C [cyproterone],MTT,[1]; [3],0.079
same,mitoOX,mtOXPHOS transcripts; [3],−0.446
same,Viability,C2C12 myotubes; [3],0.014
same,ΔΨm,[2]; [3],−0.962
same,GE-HTS,OXPHOS gene expression; [3],−0.490
same,cyt c,cytochrome c; [3],0.548
same,ROS,reactive oxygen species; [3],1.155
same,nucOX,nuOXPHOS transcripts; [3],−0.461
CC(=O)O[C@H]1C[C@@H](OC(C)=O)C(C)(C)C2CC(=O)[C@]3(C)C(CC[C@@]4(C)[C@H](C(=O)O)OC(=O)C5OC543)[C@]21C (stereo partly shown) [deacetoxy(7)-7-oxokhivorinic acid],MTT,[1]; [8],−1.282
same,mitoOX,mtOXPHOS transcripts; [8],−0.664
same,Viability,C2C12 myotubes; [8],−0.174
same,ΔΨm,[2]; [8],−0.539
same,GE-HTS,OXPHOS gene expression; [8],−0.919
same,cyt c,cytochrome c; [8],0.816
same,ROS,reactive oxygen species; [8],2.352
same,nucOX,nuOXPHOS transcripts; [8],−0.937
CC1(C)C=CC(=O)[C@@]2(C)C1CC(=O)[C@]1(C)C2CC[C@@]2(C)[C@H](c3ccoc3)OC(=O)C3OC321 (stereo partly shown) [deacetoxy-7-oxisogedunin],MTT (composite Z-score),[1]; [5],−0.791
same,mitoOX (composite Z-score),mtOXPHOS transcripts; [5],0.694
same,Viability (composite Z-score),C2C12 myotubes; [5],−0.301
same,ΔΨm (composite Z-score),[2]; [5],0.332
same,GE-HTS (composite Z-score),OXPHOS gene expression; [5],0.816
same,cyt c (composite Z-score),cytochrome c; [5],0.153
same,ROS (composite Z-score),reactive oxygen species; [5],0.898
same,nucOX (composite Z-score),nuOXPHOS transcripts; [5],0.821
